From US20050209157A1, “Short bioactive peptides and methods for their use” (priority 2001, published 2005)
Where two headings read alike, the source gives them in different places. No end group written: not given here.

Key:
[1] = system: Pseudomonas aeruginosa ATCC 9027; test: Antimicrobial assay I, MIC by OD measurement; type: cell-based; conditions: 37° C. for 24 hours, absorbance 620 nm
[2] = system: Staphylococcus aureus ATCC 6538; test: Antimicrobial assay I, MIC by OD measurement; type: cell-based; conditions: 37° C. for 24 hours, absorbance 620 nm
[3] = system: yeast (Saccharomyces cerevisiae); test: Antimicrobial assay I, yeast assay in RPMI 1640; type: cell-based; conditions: RPMI 1640 media
[4] = system: S. aureus (MRSA); type: cell-based, Staphylococcus aureus; conditions: mean of three; 16 to 20 hours at 35° C.
[5] = system: S. epidermidis C621; type: cell-based, Staphylococcus epidermidis; conditions: mean of three; 16 to 20 hours at 35° C.
[6] = system: S. pyogenes M76; test: Antimicrobial assays II, NCCLS broth microdilution MIC; type: cell-based, Streptococcus pyogenes; conditions: mean of three; 16 to 20 hours at 35° C.
[7] = system: S. pyogenes ATCC19615; test: as above; type: cell-based, Streptococcus pyogenes; conditions: mean of three, in µg/mL
[8] = system: S. pneumoniae C718; test: as above; type: cell-based, Streptococcus pneumoniae; conditions: mean of three
[9] = system: S. pneumoniae C719; test: as above; type: cell-based, Streptococcus pneumoniae; conditions: mean of three, in µg/mL
[10] = system: P. acne ATCC 6919; test: as above; type: cell-based, Propionibacterium acnes; conditions: mean of three, in µg/mL
[11] = system: BMKC; test: Anti-cancer assay, MTT, LD50; type: cell-based; conditions: BMKC cloned melanoma line, 24 hours with peptide
Description: (§1) Numbers are LD50 values (μg/mL).

[12] = system: H1299; test: Anti-cancer assay, MTT, LD50; type: cell-based; conditions: 24 hours with peptide, lung large cell carcinoma
Description: as §1

[13] = system: HeLaS3; test: Anti-cancer assay, MTT, LD50; type: cell-based; conditions: 24 hours with peptide, cervical carcinoma
Description: as §1

[14] = system: MCF7; test: Anti-cancer assay, MTT, LD50; type: cell-based; conditions: MCF7 breast adenocarcinoma line, MTT, 24 hours with peptide
Description: as §1

[15] = system: PC3; test: Anti-cancer assay, MTT, LD50; type: cell-based; conditions: 24 hours with peptide, prostate adenocarcinoma
Description: as §1

[16] = system: SW480; test: Anti-cancer assay, MTT, LD50; type: cell-based; conditions: SW480 colon adenocarcinoma line, 24 hours with peptide
Description: as §1

[17] = in vitro; type: cell-based, human; conditions: human, human red blood cells, pH 7, hemolytic assay, concentration at 50% hemolysis, 1 hour at 37° C.; read-out: LD50
[18] = system: P. aeruginosa H374; type: cell-based, Pseudomonas aeruginosa; conditions: for MIC Cm-comb.: MIC of chloramphenicol with peptide at ¼ MIC; for MIC Nal-comb.: MIC of nalidixic acid with peptide at ¼ MIC; for FIC Index: 0.5 or less = synergy
Summary of the method: (§2)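 FIC index, computed as 0.25 plus the ratio of combination to single-agent antibiotic MIC, defines synergy when 0.5 or below. Peptide fixed at one quarter MIC while chloramphenicol or nalidixic acid was serially diluted two-fold; antibiotic-alone MICs served as baselines.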

[19] = system: P. aeruginosa H774; type: cell-based, Pseudomonas aeruginosa; conditions: P. aeruginosa H744; nalidixic acid + peptide at ¼ MIC; 0.5 or less = synergy
Summary of the method: as §2

[20] = system: P. aeruginosa; type: cell-based, Pseudomonas aeruginosa; conditions: P. aeruginosa H744; MIC of nalidixic acid with peptide at ¼ MIC
Summary of the method: as §2

[21] = system: WI38; conditions: MTT, 24 hours with peptide; normal fibroblast line
[22] = in vitro; conditions: human, WI38 normal lung fibroblast cells, LD50 WI38, WI38 normal lung fibroblast line, MTT, 24 hours with peptide
[23] = chloramphenicol + peptide at ¼ MIC
[24] = nalidixic acid + peptide at ¼ MIC, FIC=0.25+MIC comb/MIC alone

Row | Substance | paerug9027 (MIC) [1] | staph6538 (MIC) [2] | yeast (MIC or MFC) [3] | S. aureus (MRSA) MIC [4] | S. epidermidis C621 MIC [5] | S. pyogenes M76 MIC [6] | S. pyogenes MIC [7] | S. pneumoniae MIC [8] | S. pneumoniae MIC [9] | P. acne MIC [10] | LD50 BMKC [11] | H1299 LD50 [12] | HeLaS3 LD50 [13] | LD50 MCF7 [14] | PC3 LD50 [15] | LD50 SW480 [16] | HC50 at 1 h [17] | MIC Cm-comb. [18] | MIC Nal-comb. [18] | FIC Index [18, 23] | also measured
1 | KYKKALKKLAKLL-NH2 [P146] | 10 µg/mL | 10 µg/mL | 50 µg/mL | 16 µg/mL | 8 µg/mL | 8 µg/mL | 8 | > 128 µg/mL | 128 | 16 | 185 µg/mL | 93 µg/mL | 640 µg/mL | 110 µg/mL | 440 µg/mL | 380 µg/mL | 180 µg/mL | 4 µg/mL | 625 µg/mL | 0.5 | FIC Index [18, 24]: 0.375; FIC Index [19]: 1.25; MIC Nal-comb. [20]: 624 µg/mL; WI38 LD50 [21]: 270 µg/mL; CC50 at 24 h [22]: 270 µg/mL
2 | FAKLLAKALKKLL-NH2 [P55] | 5 µg/mL | 5 µg/mL | 25 µg/mL | 4 µg/mL | 2 µg/mL | 4 µg/mL | 2 | 8 µg/mL | 4 | 4 | 16 µg/mL | 7 µg/mL | 15 µg/mL | 16 µg/mL | 47 µg/mL | 14 µg/mL | 20 µg/mL | 16 µg/mL | 5000 µg/mL | 1.25 | FIC Index [18, 24]: 1.25; FIC Index [19]: 1.25; MIC Nal-comb. [20]: 624 µg/mL; WI38 LD50 [21]: 32 µg/mL; CC50 at 24 h [22]: 32 µg/mL
3 | FALAAKALKKLAKKLKKLAKKAL-NH2 [P23] | 50 µg/mL | 5 µg/mL | 100 µg/mL | 32 µg/mL | 16 µg/mL | 16 µg/mL | 8 | 16 µg/mL | 16 | 4 | 27 µg/mL | 64 µg/mL | 82 µg/mL | 62 µg/mL | 41 µg/mL | 5 µg/mL | 300 µg/mL | 8 µg/mL | 2500 µg/mL | 0.75 | FIC Index [18, 24]: 0.75; FIC Index [19]: 1.25; MIC Nal-comb. [20]: 624 µg/mL; WI38 LD50 [21]: 34 µg/mL; CC50 at 24 h [22]: 34 µg/mL
4 | FALALKKALKALKKAL-NH2 [P34] | 50 µg/mL | 5 µg/mL | 25 µg/mL | 16 µg/mL | 8 µg/mL | 4 µg/mL | 4 | 8 µg/mL | 8 | 8 | 53 µg/mL | 24 µg/mL | 62 µg/mL | 21 µg/mL | 9 µg/mL | 35 µg/mL | 200 µg/mL | 16 µg/mL | 2500 µg/mL | 1.25 | FIC Index [18, 24]: 0.75; FIC Index [19]: 1.25; MIC Nal-comb. [20]: 624 µg/mL; WI38 LD50 [21]: 40 µg/mL; CC50 at 24 h [22]: 40 µg/mL
5 | FAKKLAKKLAKLL-NH2 [P75] | 5 µg/mL | 5 µg/mL | 50 µg/mL | 32 µg/mL | 8 µg/mL | 8 µg/mL | 4 | > 128 µg/mL | 64 | 16 | 24 µg/mL | 80 µg/mL | 74 µg/mL | 42 µg/mL | 54 µg/mL | 17 µg/mL | 750 µg/mL | 8 µg/mL | 2500 µg/mL | 0.75 | FIC Index [18, 24]: 0.75; FIC Index [19]: 1.25; MIC Nal-comb. [20]: 624 µg/mL; WI38 LD50 [21]: 80 µg/mL; CC50 at 24 h [22]: 80 µg/mL
6 | FAKKLAKLALKLAKL-NH2 [P44] | 5 µg/mL | 5 µg/mL | 50 µg/mL | 8 µg/mL | 4 µg/mL | 4 µg/mL | 4 | 8 µg/mL | 16 | 4 | 47 µg/mL | 72 µg/mL | 22 µg/mL | 140 µg/mL | 45 µg/mL | 32 µg/mL | 90 µg/mL | 16 µg/mL | 5000 µg/mL | 1.25 | FIC Index [18, 24]: 1.25; FIC Index [19]: 1.25; MIC Nal-comb. [20]: 624 µg/mL; WI38 LD50 [21]: 36 µg/mL; CC50 at 24 h [22]: 36 µg/mL
